# Counter-ions that a name gives are not always drawn. Like-named read-outs stand apart in the source and are kept apart here.
# How the values were obtained:
# [1] = tested on: Purkinje-Fasern aus Hundeherzen; assay: Electrophysiological studies on Purkinje fibres (Vmax); format: cell-based, Hund; conditions: for IC20: purkinje, read-out: C20 Vmax
# Excerpt: Die antiarrhythmische Wirksamkeit der erfindungsgemäßen Verbindungen wurde sowohl anhand von elektrophysiologischen Studien an Purkinje-Fasern aus Hundeherzen sowie mit Hilfe von Ouabain-induzierten ventrikulären Tachykardien bei Hunden bestimmt. […]
# Als zusätzliches Kriterium wurde der Vorzeitigkeitsindex (Prematurity-Faktor) bestimmt, der die erwünschte Wirksamkeit der erfindungsgemäßen Verbindungen bei vorzeitigen Extrasystolen charakterisiert.
# [2] = tested on: Meerschweinchen-Papillarmuskel; assay: Contraction force of the heart on papillary muscle (negative inotropy); format: cell-based; conditions: for IC20: concentration that reduces contraction of the papillary muscle by 20 %, read-out: C20 CF
# Excerpt: Die Wirkung auf die Kontraktionskraft des Herzens wurde am Meerschweinchen-Papillarmuskel untersucht. Hämodynamische Studien wurden bei gesunden, wie auch akut infarzierten Hunden durchgeführt.
# [3] = Acute toxicity LD50, mouse i.v.; conditions: in vivo, iv, Maus (i.v.), read-out: LD₅₀
# Excerpt: (§1) Dies ergibt sich aus einem Vergleich der LD₅₀-Werte bei Ratten und Mäusen, die in Tabelle (II) zusammengefaßt sind. Tabelle I
# [4] = Acute toxicity LD50, rat i.v.; conditions: in vivo, iv, Ratte (i.v.), read-out: LD₅₀
# Excerpt: as §1
# [5] = (% of control Vmax at cycle length 2000) / (% of control Vmax at cycle length 500) at C20 Vmax
# [6] = (% of control Vmax at premature extrasystoles) / (% of control Vmax at a normal beat) at Vmax
Structure (SMILES),"Rate-Faktor von Vmax [1, 5]","Prematurity Faktor Vmax [1, 6]",IC20 [1],IC20 [2],C20 Vmax [1],Prematurity Faktor Vmax [1],Rate-Faktor von Vmax [1],C20 CF [2],LD50 [3],LD50 [4]
"CCC(C)(C)NCC(O)COc1ccccc1CCC(=O)c1ccc(OC)c(OC)c1.Cl (centres unmarked) [Beispiel 2, 1-(3,4-Dimethoxyphenyl)-3-[2′-(2-hydroxy-3-tert.-pentylamino-propoxy)-phenyl]-1-propanon-hydrochlorid]","1,27","1,15",3600 nM,8 µM,–,–,–,–,–,–
"COc1ccc(C(=O)CCc2ccccc2OCC(O)CNC(C)(C)C)cc1OC.Cl (centres unmarked) [Beispiel 5, 1-(3,4-Dimethoxyphenyl)-3-[2′-(2-hydroxy-3-tert.-butylamino-propoxy)-phenyl]-1-propanon-hydrochlorid]","1,39","0,98",4400 nM,12 µM,–,–,–,–,–,–
"CCC(CO)NCC(O)COc1ccccc1CCC(=O)c1ccc(OC)c(OC)c1 (centres unmarked) [Beispiel 9, 1-(3,4-Dimethoxyphenyl)-3-[2′-(2-hydroxy-3-(1˝-hydroxy-but-2-ylamino)-propoxy)-phenyl]-1-propanon-oxalat]",–,–,–,–,"10,2 µM","0,97","1,30","25,0 µM",–,–
"COc1cccc(C(=O)CCc2ccccc2OCC(O)CNC(C)(C)C)c1.Cl (centres unmarked) [Beispiel 27, 1-(3-Methoxyphenyl)-3-[2′-(2-hydroxy-3-tert.-butylamino-propoxy)-phenyl]-1-propanon-hydrochlorid]","0,99","1,24",1600 nM,4 µM,–,–,–,–,–,–
"COc1ccccc1C(=O)CCc1ccccc1OCC(O)CNC(C)(C)C.Cl (centres unmarked) [Beispiel 38, 1-(2-Methoxyphenyl)-3-[2′-(2-hydroxy-3-tert.-butylamino-propoxy)-phenyl]-1-propanon-hydrochlorid]","1,30","0,97",1700 nM,7 µM,–,–,–,–,17 mg/kg,15 mg/kg
"COc1cccc(C(=O)CCc2ccccc2OCC(O)CNC(C)C)c1.Cl (centres unmarked) [Beispiel 24, 1-(3-Methoxyphenyl)-3-[2′-(2-hydroxy-3-isopropylamino-propoxy)-phenyl]-1-propanon-hydrochlorid]","1,15","1,01",1600 nM,10 µM,–,–,–,–,–,–
"Cl.O=C(CCc1ccccc1OCC(O)CNC1CCCCC1)c1ccccc1 (centres unmarked) [Beispiel 46, 1-Phenyl,-3-[2′-(2-hydroxy-3-cyclohexylamino-propoxy)-phenyl]-1-propanon-hydrochlorid]","2,50","0,92",2200 nM,2 µM,–,–,–,–,–,–
"COc1ccc(C(=O)CCc2ccccc2OCC(O)CNCCO)cc1OC (centres unmarked) [Beispiel 8, 1-(3,4-Dimethoxyphenyl)-3-[2′-(2-hydroxy-3(2˝-hydroxy-ethylamino)-propoxy)-phenyl]-1-propanon-hydrochlorid]",–,–,–,–,"8,3 µM","0,97","1,34","13,0 µM",–,–
"Cl.O=C(CCc1ccccc1OCC(O)CN1CCCCC1)c1ccccc1 (centres unmarked) [Beispiel 47, 1-Phenyl-3-[2′-(2-hydroxy-3-piperidino-propoxy)-phenyl]-1-propanon-hydrochlorid]","1,08","0,99",300 nM,2 µM,–,–,–,–,–,–
"COc1cc(C(=O)CCc2ccccc2OCC(O)CNC(C)C)cc(OC)c1OC.Cl (centres unmarked) [Beispiel 12, 1-(3,4,5-Trimethoxyphenyl)-3-[2′-(2-hydroxy-3-isopropylamino-propoxy)-phenyl]-1-propanon-hydrochlorid]","1,14","0,90",5800 nM,18 µM,–,–,–,–,–,–
"CCCNCC(O)COc1ccccc1C(=O)CCc1ccccc1 (centres unmarked) [A, Propafenon, reference compound]",–,–,–,–,"3,7 µM","0,97","1,08","5,3 µM",–,–
COc1ccc(C(=O)CCc2ccccc2OCC(O)CN2CCCCC2)cc1OC (centres unmarked) [Beispiel 6],–,–,–,–,"11,3 µM","0,70","1,32","20,0 µM",–,–
"COc1cc(C(=O)CCc2ccccc2OCC(O)CNC2CCCCC2)cc(OC)c1OC.Cl (centres unmarked) [Beispiel 16, 1-(3,4,5-Trimethoxyphenyl)-3-[2′-(2-hydroxy-3-cyclohexylamino-propoxy)-phenyl]-1-propanon-hydrochlorid]","5,00","0,50",11900 nM,9 µM,–,–,–,–,–,–
"Cc1ccc(C(=O)CCc2ccccc2OCC(O)CNC(C)(C)C)cc1.Cl (centres unmarked) [Beispiel 44, 1-(4-Methylphenyl)-3-[2′-(2-hydroxy-3-tert.-butylamino-propoxy)-phenyl]-1-propanon-hydrochlorid]","1,11","0,99",2600 nM,6 µM,–,–,–,–,–,–
"CCCNCC(O)COc1ccccc1CCC(=O)c1ccc(OC)c(OC)c1.Cl (centres unmarked) [Beispiel 1, 1-(3,4-Dimethoxyphenyl)-3-[2′-(2-hydroxy-3-n-propylaminopropoxy)-phenyl]-1-propanon-hydrochlorid]","5,00","0,50",12500 nM,15 µM,–,–,–,–,16 mg/kg,17 mg/kg
"CC(C)(C)NCC(O)COc1ccccc1CCC(=O)c1ccccc1.Cl (centres unmarked) [Beispiel 48, 1-Phenyl-3-[2′-(2-hydroxy-3-tert.-butylamino-propoxy)-phenyl]-1-propanon-hydrochlorid]","1,18","0,91",1000 nM,3 µM,–,–,–,–,–,–
"COc1ccc(C(=O)CCc2ccccc2OCC(O)CNC(C)C)cc1OC.Cl (centres unmarked) [Beispiel 4, 1-(3,4-Dimethoxyphenyl)-3-[2′-(2-hydroxy-3-isopropylamino-propoxy)-phenyl]-1-propanon-hydrochlorid]","1,13","1,01",4800 nM,22 µM,–,–,–,–,–,–
"COc1ccc(C(=O)CCc2ccccc2OCC(O)CNCC(C)O)cc1OC (centres unmarked) [Beispiel 7, 1-(3,4-Dimethoxyphenyl)-3-[2′-(2-hydroxy-3(2˝-hydroxy-propylamino)-propoxy)-phenyl]-1-propanon-hydrochlorid]",–,–,–,–,"5,7 µM","0,98","1,39","18,0 µM",–,–
"CCCNCC(O)COc1ccccc1CCC(=O)c1cccc(OC)c1.Cl (centres unmarked) [Beispiel 26, 1-(3-Methoxyphenyl)-3-[2′-(2-hydroxy-3-n-propylamino-propoxy)-phenyl]-1-propanon-hydrochlorid]","1,16","0,93",1700 nM,3 µM,–,–,–,–,–,–
